Test [1] has as its target T1, HCV polymerase (NS5B) type 1b (Hepatitis C virus genotype 1b, UniProt P26663).
T1 construct: a region encoding NS5B (J Virol 1991 March, 65(3), 1105-13, 544 amino acids after deletion of 47 amino acids on the C-terminal); 6xHis (C); made in house; host or cells: Escherichia coli
As to the kind of experiment: Assay of enzyme (HCV polymerase) inhibitory activity, type 1b enzyme. Type of test: biochemical, HCV BK strain (type 1b). The settings on record: HCV polymerase inhibitory activity IC50, 1b, type 1b enzyme. The procedure, abridged: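 His-tagged, C-terminally truncated NS5B (BK strain, 1b; 0.5 μg/ml) incubated with compound 60 min at 25 °C on 3′UTR-derived substrate RNA (5 μg/ml), 50 μM ATP/GTP/CTP, 2 μM UTP plus [3H]UTP, pH 7.5. Acid-precipitated RNA counted; IC50 from radioactivity with and without compound.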

Test [2] addresses T2, HCV polymerase (NS5B) type 1a (Hepatitis C virus genotype 1a, UniProt P26664).
T2 construct: made in house; host or cells: Escherichia coli (by the 'similar method' of the 1b enzyme)
Kind of test: Assay of enzyme (HCV polymerase) inhibitory activity, type 1a enzyme. Type of test: biochemical, HCV type 1a (cloned from the blood of patients). The settings on record: HCV polymerase inhibitory activity IC50, 1a, type 1a enzyme. The procedure, abridged: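 His-tagged NS5B, C-terminal 47 residues deleted, type 1a at 1.5 μg/ml, with 5 μg/ml HCV 3′UTR substrate RNA, 50 μM ATP/GTP/CTP, 2 μM UTP plus [3H]UTP, pH 7.5 Tris, 5 mM MgCl2; 60 min at 25° C. TCA-precipitated RNA counted by scintillation; IC50 from radioactivity with vs. without compound.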

SMILES strings stand for the structures. pIC50: −log10 of the molar value.

We go through 9 compounds from patent US8017612B2, “Piperazine compound and use thereof as a HCV polymerase inhibitor” (priority 2006, dated 2011).

For `O=C(O)c1cccc2nc(N3CCN(S(=O)(=O)c4ccc(OC(F)(F)F)cc4)[C@@H](C(=O)NCc4ccc(OC(F)(F)F)cc4)C3)cnc12` [Example 780, 2-[(R)-4-(4-trifluoromethoxy-benzenesulfonyl)-3-(4-trifluoromethoxy-benzylcarbamoyl)-piperazin-1-yl]-quinoxaline-5-carboxylic acid], the results for the negative-log IC50 (pIC50) in test [1] and in test [2] were more than 7.00 and 6.00 to 7.00, respectively.

Take `O=C(O)c1cccc2ncc(N3CCN(S(=O)(=O)c4ccc(OC(F)(F)F)cc4)[C@@H](C(=O)NCc4ccc(OC(F)(F)F)cc4)C3)nc12` [Example 781, 3-[(R)-4-(4-trifluoromethoxy-benzenesulfonyl)-3-(4-trifluoromethoxy-benzylcarbamoyl)-piperazin-1-yl]-quinoxaline-5-carboxylic acid]: the pIC50 in test [1] and in test [2] was more than 7.00 in each case.

`O=C(NCc1ccc(OC(F)(F)F)cc1)[C@H]1CN(c2ccc3nccnc3c2)CCN1S(=O)(=O)c1ccc(OC(F)(F)F)cc1` [Example 782, (R)-4-quinoxalin-6-yl-1-(4-trifluoromethoxy-benzenesulfonyl)-piperazine-2-carboxylic acid 4-trifluoromethoxy-benzylamide]: the pIC50 in test [1] and in test [2] was more than 7.00 each time.

For the compound `O=C(NCc1ccc(OC(F)(F)F)cc1)[C@H]1CNCCN1S(=O)(=O)c1ccc(OC(F)(F)F)cc1` [Example 783, (R)-1-(4-trifluoromethoxy-benzenesulfonyl)-piperazine-2-carboxylic acid 4-trifluoromethoxy-benzylamide], the negative logarithm of the IC50 (pIC50) in test [1] and in test [2] was less than 6.00 throughout.

Turning to `O=C(NCc1ccc(OC(F)(F)F)cc1)[C@H]1CN(c2nc3nc[nH]c(=O)c3s2)CCN1S(=O)(=O)c1ccc(OC(F)(F)F)cc1` [Example 784, (R)-4-(7-oxo-6,7-dihydro-thiazolo[4,5-d]pyrimidin-2-yl)-1-(4-trifluoromethoxy-benzenesulfonyl)-piperazine-2-carboxylic acid 4-trifluoromethoxy-benzylamide], the pIC50 in test [1] and in test [2] was more than 7.00 throughout.

As for `O=C(NCc1ccc(OC(F)(F)F)cc1)[C@H]1CN(c2nc3nn[nH]c(=O)c3s2)CCN1S(=O)(=O)c1ccc(OC(F)(F)F)cc1` [Example 785, (R)-4-(4-oxo-3,4-dihydro-thiazolo[4,5-d][1,2,3]triazin-6-yl)-1-(4-trifluoromethoxy-benzenesulfonyl)-piperazine-2-carboxylic acid 4-trifluoromethoxy-benzylamide], the pIC50 in test [1] and in test [2] was more than 7.00 throughout.

As for `CCc1ccc(S(=O)(=O)N2CCN(c3cnc(C(=O)O)cn3)C[C@@H]2C(=O)NCc2ccc(OC(F)(F)F)cc2)cc1` [Example 786, (R)-4-(4-ethyl-benzenesulfonyl)-3-(4-trifluoromethoxy-benzylcarbamoyl)-3,4,5,6-tetrahydro-2H-[1,2′]bipyrazinyl-5′-carboxylic acid], the negative-log IC50 (pIC50) in test [1] and in test [2] was more than 7.00 in each case.

For the compound `O=C(O)c1cnc(N2CCN(S(=O)(=O)c3ccc(Br)s3)[C@@H](C(=O)NCc3ccc(OC(F)(F)F)cc3)C2)cn1` [Example 787, (R)-4-(5-bromo-thiophene-2-sulfonyl)-3-(4-trifluoromethoxy-benzylcarbamoyl)-3,4,5,6-tetrahydro-2H-[1,2′]bipyrazinyl-5′-carboxylic acid], the pIC50 in test [1] and in test [2] was more than 7.00 throughout.

Regarding `O=C(O)c1cnc(N2CCN(S(=O)(=O)c3ccc(N4CCCC4)cc3)[C@@H](C(=O)NCc3ccc(OC(F)(F)F)cc3)C2)cn1` [Example 788, (R)-4-(4-pyrrolidin-1-yl-benzenesulfonyl)-3-(4-trifluoromethoxy-benzylcarbamoyl)-3,4,5,6-tetrahydro-2H-[1,2′]bipyrazinyl-5′-carboxylic acid], the negative-log IC50 (pIC50) in test [1] and in test [2] was more than 7.00 throughout.

The pIC50 is the IC50 on a negative log10 scale, so that one unit is a factor of ten. A high value points to a small IC50.
